# Assay results taken from patent US7262212B2, “2,3-dihydro-6-nitroimidazo[2,1-b]oxazoles” (Otsuka Pharmaceutical Co., Ltd., priority 2002, dated 2007).
row,Structure (SMILES),melting point
1,CN(CC1Cn2cc([N+](=O)[O-])nc2O1)C(=O)OCc1ccc(F)cc1 (stereo not drawn),124.5 to 128.1 °C
2,O=C(NCC1Cn2cc([N+](=O)[O-])nc2O1)OCc1ccc(F)cc1 (stereo not drawn),164.6 to 165.1 °C
3,O=[N+]([O-])c1cn2c(n1)OC1(CCN(c3ccc(Cl)cc3)CC1)C2,242 to 245 °C
4,O=C(NCc1ccc(OC(F)(F)F)cc1)N1CCC2(CC1)Cn1cc([N+](=O)[O-])nc1O2,223 to 225 °C
5,CNC(C1CCN(C(=O)OC(C)(C)C)CC1)[C@]1(C)Cn2cc([N+](=O)[O-])nc2O1 (stereo partly drawn),138.5 to 140.3 °C
6,C[C@]1(COc2ccc(N3CCN(Cc4ccc(C(F)(F)F)cc4)CC3)cc2)Cn2cc([N+](=O)[O-])nc2O1,205.5 to 207 °C
7,CNC(C1CCN(c2ccc(Cl)cc2)CC1)[C@]1(C)Cn2cc([N+](=O)[O-])nc2O1 (stereo partly drawn),179.2 to 182.1 °C
8,CCOC(=O)c1ccc2c(c1)n(CC1(C)Cn3cc([N+](=O)[O-])nc3O1)c(=O)n2C (stereo not drawn),265.8 to 266.7 °C
9,O=C(Nc1ccc(C(F)(F)F)cc1)N1CCC2(CC1)Cn1cc([N+](=O)[O-])nc1O2,215 to 217 °C
10,CC1(Cn2nc(Cc3ccc(Cl)cc3)oc2=O)Cn2cc([N+](=O)[O-])nc2O1 (stereo not drawn),151 to 153 °C
11,O=[N+]([O-])c1cn2c(n1)OC(CN1CCN(c3nc4ccccc4o3)CC1)C2 (stereo not drawn),206 to 209 °C (dec.)
12,C[C@]1(COC(=O)N2CCC(Oc3ccc(C(F)(F)F)cc3)CC2)Cn2cc([N+](=O)[O-])nc2O1,165 to 166 °C
13,CN(C[C@@]1(C)Cn2cc([N+](=O)[O-])nc2O1)c1ccccc1,147 to 148 °C
14,CC1(Cn2nc(COc3ccc(Cl)cc3)oc2=O)Cn2cc([N+](=O)[O-])nc2O1 (stereo not drawn),64 to 66 °C
15,O=C(OCc1ccc(C(F)(F)F)cc1)N1CCC2(CC1)Cn1cc([N+](=O)[O-])nc1O2,189 to 190 °C
16,CNC(C1CCN(c2ccc(C#N)cc2)CC1)[C@]1(C)Cn2cc([N+](=O)[O-])nc2O1 (stereo partly drawn),149 to 152 °C
17,CN(Cc1ccc(N(C)C)cc1)C[C@@]1(C)Cn2cc([N+](=O)[O-])nc2O1,168 to 169 °C
18,CCCCCC(C=NN1CCN(CC2(C)Cn3cc([N+](=O)[O-])nc3O2)CC1)=Cc1ccccc1 (stereo not drawn),166.6 to 169.6 °C
19,O=C(NCC1Cn2cc([N+](=O)[O-])nc2O1)OCc1ccc(Cl)cc1 (stereo not drawn),182.6 to 182.9 °C
20,C[C@]1(COc2ccc(C3CCN(Cc4ccc(OC(F)(F)F)cc4)CC3)cc2)Cn2cc([N+](=O)[O-])nc2O1,186 to 188 °C
21,CC1(CCc2nnnn2-c2ccccc2)Cn2cc([N+](=O)[O-])nc2O1 (stereo not drawn),158 to 159 °C
22,C[C@]1(COc2ccc(C(=O)N3CCN(Cc4ccc(OC(F)(F)F)cc4)CC3)cc2)Cn2cc([N+](=O)[O-])nc2O1,155 to 156 °C
23,CC1(Cn2nc(-c3ccc(C(F)(F)F)cc3)oc2=O)Cn2cc([N+](=O)[O-])nc2O1 (stereo not drawn),230 to 231 °C
24,C[C@]1(COC(=O)N2CCN(c3ccc(OC(F)(F)F)cc3)CC2)Cn2cc([N+](=O)[O-])nc2O1,168 to 169 °C
25,C[C@]1(COc2ccc(-n3ccnc3)cc2)Cn2cc([N+](=O)[O-])nc2O1,172 to 175 °C
26,C[C@]1(CN2CCN(C(=O)OCC=Cc3cccc(C(F)(F)F)c3)CC2)Cn2cc([N+](=O)[O-])nc2O1.O=C(O)/C=C\C(=O)O,136 to 138 °C
27,C[C@]1(CN2CCN(C(=O)OCC=Cc3c(F)cc(F)cc3F)CC2)Cn2cc([N+](=O)[O-])nc2O1.O=C(O)/C=C\C(=O)O,158 to 159 °C
28,CC1(CCn2nc(-c3cnccn3)oc2=O)Cn2cc([N+](=O)[O-])nc2O1 (stereo not drawn),209 to 212 °C
29,CC1(CCCN2CCN(Cc3ccc(-c4ccccc4)cc3)CC2)Cn2cc([N+](=O)[O-])nc2O1 (stereo not drawn),176 to 178 °C

# Other lines, results leading:
row,melting point,Structure (SMILES)
1,147 to 149 °C (dec.),CC1(CCCN2CCN(C(C)(C)C)C(=O)C2)Cn2cc([N+](=O)[O-])nc2O1 (stereo not drawn)
2,189 to 191 °C,CC1(CN2CCN(C(=O)Cc3ccc(Cl)c(Cl)c3)CC2)Cn2cc([N+](=O)[O-])nc2O1 (stereo not drawn)
3,81 to 85 °C,CC1(CN2CCN(C(=O)Oc3ccccc3)CC2)Cn2cc([N+](=O)[O-])nc2O1 (stereo not drawn)
4,158.8 to 163.9 °C,C[C@]1(CN2CCC(c3ccccc3)CC2)Cn2cc([N+](=O)[O-])nc2O1
5,166 to 168 °C,CC1(CO)Cn2cc([N+](=O)[O-])nc2O1 (stereo not drawn)
6,158.3 to 159.8 °C,CC(C)OC(=O)N1CCN(CC2(C)Cn3cc([N+](=O)[O-])nc3O2)CC1 (stereo not drawn)
7,80 to 100 °C (dec.),CN1C(=O)C(C)(C)c2cc(COC(=O)N3CCN(C[C@@]4(C)Cn5cc([N+](=O)[O-])nc5O4)CC3)ccc21
8,203.2 to 204.4 °C,Cn1c(=O)n(CC2(C)Cn3cc([N+](=O)[O-])nc3O2)c2ccccc21 (stereo not drawn)
9,161 to 163 °C,C[C@]1(COC(=O)N2CCN(Cc3ccc(Cl)cc3)CC2)Cn2cc([N+](=O)[O-])nc2O1
10,207 to 210 °C (dec.),Cc1ccc(NC(=O)N2CCN(C[C@@]3(C)Cn4cc([N+](=O)[O-])nc4O3)CC2)cc1
11,132 to 136 °C,C[C@]1(CN2CCC(OCc3ccc(Cl)c(Cl)c3)CC2)Cn2cc([N+](=O)[O-])nc2O1
12,181 to 182 °C,CC(C)(C)OC(=O)N1CCC(N2CCN(C[C@@]3(C)Cn4cc([N+](=O)[O-])nc4O3)CC2)CC1
13,164 to 165 °C (dec.),CC1(CN2CCN(C(=S)Nc3ccccc3)CC2)Cn2cc([N+](=O)[O-])nc2O1 (stereo not drawn)
14,246.2 to 246.8 °C,CC1(Cn2c(=O)oc3ccc(F)cc32)Cn2cc([N+](=O)[O-])nc2O1 (stereo not drawn)
15,189 to 190 °C,CN1C(=O)CCc2cc(COC(=O)N3CCN(C[C@@]4(C)Cn5cc([N+](=O)[O-])nc5O4)CC3)ccc21
16,91.3 to 92.7 °C,C[C@]1(CN2CCC(OCC=Cc3ccccc3)CC2)Cn2cc([N+](=O)[O-])nc2O1
17,190.2 to 191.8 °C,C[C@]1(CN2CCN(N=Cc3cc4cc(C(F)(F)F)ccc4o3)CC2)Cn2cc([N+](=O)[O-])nc2O1
18,182.5 to 183.3 °C,CC1(CN2CCN(Cc3ccc(F)cc3)C2=O)Cn2cc([N+](=O)[O-])nc2O1 (stereo not drawn)
19,158 to 160.6 °C,CC1(CN2CCN(C(=O)COc3ccccc3)CC2)Cn2cc([N+](=O)[O-])nc2O1 (stereo not drawn)
20,107 to 109 °C,C[C@]1(CN2CCC([S+]([O-])c3ccc(OC(F)(F)F)cc3)CC2)Cn2cc([N+](=O)[O-])nc2O1 (stereo partly drawn)
21,176.2 to 178.8 °C,CNCC1(C)Cn2cc([N+](=O)[O-])nc2O1.O=C(O)C(F)(F)F (stereo not drawn)
22,156 to 159 °C (dec.),C[C@]1(CN2CCN(C(=O)Nc3ccc(Cl)cc3)CC2)Cn2cc([N+](=O)[O-])nc2O1
23,166.8 to 169.1 °C,CC1(CN2CCN(C(=O)CCc3ccccc3)CC2)Cn2cc([N+](=O)[O-])nc2O1 (stereo not drawn)
24,113 to 114 °C,CC1(CN2CCC(Oc3ccc(C(F)(F)F)cc3)CC2)Cn2cc([N+](=O)[O-])nc2O1 (stereo not drawn)
25,145 to 147.7 °C,C[C@]1(CN2CCN(c3cccnc3)CC2)Cn2cc([N+](=O)[O-])nc2O1
26,189 to 191 °C,C[C@]1(COC(=O)N2CCc3cc(Cl)ccc32)Cn2cc([N+](=O)[O-])nc2O1
27,124 to 126 °C,CC1(CN2CCC(=O)CC2)Cn2cc([N+](=O)[O-])nc2O1 (stereo not drawn)
28,135 to 137 °C,CCn1nnnc1CCC1(C)Cn2cc([N+](=O)[O-])nc2O1 (stereo not drawn)
